Results taken from article PMC5578959, “Selective LRRK2 kinase inhibition reduces phosphorylation of endogenous Rab10 and Rab12 in human peripheral mononuclear blood cells” (Scientific Reports, 2017).
Where two headings read alike, the source gives them in different places.

Experiments:
[1] = target: LRRK2 WT (Homo sapiens, UniProt Q5S007); experiment: Odyssey CLx 96-well ICW assay, LRRK2-Ser935 phosphorylation in transfected HEK293 cells; assay type: cell-based; details: transiently transfected HEK293 cells, 1 h, mean, n = 3
LRRK2 WT, sequence (Q5S007 whole entry): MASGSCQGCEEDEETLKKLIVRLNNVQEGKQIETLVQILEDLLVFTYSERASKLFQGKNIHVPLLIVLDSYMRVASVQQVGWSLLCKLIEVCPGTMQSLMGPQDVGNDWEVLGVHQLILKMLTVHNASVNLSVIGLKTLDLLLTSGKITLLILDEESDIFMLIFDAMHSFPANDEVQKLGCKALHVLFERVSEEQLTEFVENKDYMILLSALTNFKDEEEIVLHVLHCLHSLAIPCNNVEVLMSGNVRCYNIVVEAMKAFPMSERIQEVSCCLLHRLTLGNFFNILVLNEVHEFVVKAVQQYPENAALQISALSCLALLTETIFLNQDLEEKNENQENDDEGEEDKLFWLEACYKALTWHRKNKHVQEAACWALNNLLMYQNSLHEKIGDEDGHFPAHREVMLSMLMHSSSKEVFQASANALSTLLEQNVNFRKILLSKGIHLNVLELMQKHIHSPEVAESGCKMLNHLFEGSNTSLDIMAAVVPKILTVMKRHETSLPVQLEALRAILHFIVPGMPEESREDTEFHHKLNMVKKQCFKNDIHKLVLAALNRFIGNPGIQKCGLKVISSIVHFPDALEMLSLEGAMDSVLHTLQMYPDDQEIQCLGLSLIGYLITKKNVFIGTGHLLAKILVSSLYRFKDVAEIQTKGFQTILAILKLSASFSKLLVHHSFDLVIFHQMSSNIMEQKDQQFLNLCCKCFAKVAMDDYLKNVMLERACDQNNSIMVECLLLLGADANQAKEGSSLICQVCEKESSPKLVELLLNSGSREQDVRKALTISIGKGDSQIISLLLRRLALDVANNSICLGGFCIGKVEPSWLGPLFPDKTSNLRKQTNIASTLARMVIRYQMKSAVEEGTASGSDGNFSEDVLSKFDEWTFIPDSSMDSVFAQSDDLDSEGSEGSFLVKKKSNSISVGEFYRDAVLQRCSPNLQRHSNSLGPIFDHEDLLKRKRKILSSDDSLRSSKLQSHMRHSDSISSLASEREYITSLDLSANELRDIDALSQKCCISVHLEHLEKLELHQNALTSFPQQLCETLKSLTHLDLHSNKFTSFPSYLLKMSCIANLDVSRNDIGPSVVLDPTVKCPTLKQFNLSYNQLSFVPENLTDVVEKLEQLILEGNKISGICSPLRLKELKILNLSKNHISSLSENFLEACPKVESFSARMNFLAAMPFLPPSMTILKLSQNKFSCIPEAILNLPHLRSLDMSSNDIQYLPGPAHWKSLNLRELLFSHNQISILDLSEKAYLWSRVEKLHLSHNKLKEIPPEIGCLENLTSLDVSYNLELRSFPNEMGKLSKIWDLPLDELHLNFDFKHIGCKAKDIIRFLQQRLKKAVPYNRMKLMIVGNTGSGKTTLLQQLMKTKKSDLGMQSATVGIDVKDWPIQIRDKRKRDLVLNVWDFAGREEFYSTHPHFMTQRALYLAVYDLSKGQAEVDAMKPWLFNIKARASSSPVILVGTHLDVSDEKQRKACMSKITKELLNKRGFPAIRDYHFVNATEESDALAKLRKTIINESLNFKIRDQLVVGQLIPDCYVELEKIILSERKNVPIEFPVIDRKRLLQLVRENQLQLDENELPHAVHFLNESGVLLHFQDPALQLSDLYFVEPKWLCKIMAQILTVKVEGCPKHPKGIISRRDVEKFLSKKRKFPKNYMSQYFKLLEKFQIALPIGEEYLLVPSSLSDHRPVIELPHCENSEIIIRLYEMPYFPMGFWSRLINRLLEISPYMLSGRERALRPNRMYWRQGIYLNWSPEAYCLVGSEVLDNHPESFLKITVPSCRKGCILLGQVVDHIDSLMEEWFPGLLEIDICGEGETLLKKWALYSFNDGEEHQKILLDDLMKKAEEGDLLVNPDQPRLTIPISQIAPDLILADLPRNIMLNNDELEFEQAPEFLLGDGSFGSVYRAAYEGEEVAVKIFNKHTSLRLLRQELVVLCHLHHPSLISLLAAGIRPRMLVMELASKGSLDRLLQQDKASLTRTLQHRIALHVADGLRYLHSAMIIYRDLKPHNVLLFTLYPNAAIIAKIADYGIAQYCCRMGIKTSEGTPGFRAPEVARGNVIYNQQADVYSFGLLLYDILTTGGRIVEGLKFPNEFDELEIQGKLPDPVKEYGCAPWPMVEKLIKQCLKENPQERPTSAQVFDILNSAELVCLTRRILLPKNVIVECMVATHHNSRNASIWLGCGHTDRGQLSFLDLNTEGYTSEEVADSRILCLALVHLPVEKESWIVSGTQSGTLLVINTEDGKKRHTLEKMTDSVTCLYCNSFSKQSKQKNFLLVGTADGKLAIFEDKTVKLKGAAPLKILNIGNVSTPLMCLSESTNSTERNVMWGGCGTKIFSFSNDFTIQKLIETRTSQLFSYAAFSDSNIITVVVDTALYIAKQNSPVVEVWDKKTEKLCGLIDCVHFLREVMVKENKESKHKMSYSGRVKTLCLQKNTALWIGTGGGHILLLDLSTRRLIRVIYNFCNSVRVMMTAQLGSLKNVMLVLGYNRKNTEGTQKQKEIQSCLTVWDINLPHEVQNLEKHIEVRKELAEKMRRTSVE
Source text: (§1) Plasmids encoding various LRRK2 and Rab GTPase protein variants were transiently expressed in HEK293 cells using Lipofectamine®2000 according to the manufacturer’s instructions (Thermo Fisher Scientific, US).
(§2) HEK293 cells grown in clear-bottom 96-well plates were transfected with either wild type LRRK2, kinase overactive variant G2019S, inhibition-resistant mutant A2016T or mock, respectively. […] Subsequently, the plates were processed as previously described.

[2] = target: T1, LRRK2 A2016T (Homo sapiens, UniProt Q5S007, A2016T); experiment: as above; assay type: cell-based; details: transiently transfected HEK293 cells, inhibition resistant mutant A2016T, 1 h, mean, n = 3
T1 construct: expressed in transfected cells; host or cells: HEK293
T1 sequence (Q5S007 whole entry A2016T): as the sequence (Q5S007 whole entry) above, with A2016T counted along it
Source text: as §1, §2

[3] = target: T2, LRRK2 G2019S (Homo sapiens, UniProt Q5S007, G2019S); experiment: as above; assay type: cell-based; details: transiently transfected HEK293 cells, overactive variant G2019S, 1 h, mean, n = 3
T2 construct: expressed in transfected cells; host or cells: HEK293
T2 sequence (Q5S007 whole entry G2019S): as the sequence (Q5S007 whole entry) above, with G2019S counted along it
Source text: as §1, §2

[4] = test system: LRRK2; experiment: Global proteome analysis, immune stimulated human PBMCs; assay type: cell-based; details: 100 nM, 24 hrs, not statistically significant (q-value: 0.08)
Protocol: (§3) Freshly isolated PBMCs were plated at a density ranging from 7–20 × 10^6 cells in 10 cm petri dishes (Costar 3262) in RPMI-1640 media (Gibco 61870–010) supplemented with 10% non-heat inactivated FBS, 5 ml Antimycotic (Sigma cat:5965) with or without an immune stimulation cocktail consisting of 400 nM phorbol 12-myristate 13-acetate (PMA) and 100 ng/ml interferon-γ (INF-γ). After 48 hrs in culture the cultures were added a fifth of the volume media containing 5x the final concentration of the respective LRRK2 inhibitor with or without PMA and interferon-γ. […] Approximately, 400 µg of protein from each individual donor was needed in order to run the full PBMC stimulation and inhibition study with subsequent global proteome and phosphoproteome (PhosphoScout®) analyses. […]
(§4) Upon the respective treatments cells were washed with cold PBS, snap-frozen in liquid N2 and shipped to Evotec on dry-ice. […] Cell lysis was performed in ice-cold lysis buffer (8 M urea, 50 mM Tris pH 8.2, 10 mM sodium pyrophosphate, 5 mM EDTA, 5 mM EGTA, 10 mM sodium fluoride, 10 mM β-glycerophosphate, 10 mM sodium orthovanadate, phosphatase inhibitor cocktail 2 and 3 (Sigma, 1:100 (v/v)) and Complete protease inhibitor cocktail tablets (Roche). Cell extracts were sonicated on ice and the cell debris was removed by centrifugation before protein concentrations were determined (Bradford, BioRad). […]

[5] = test system: Regulator of telomere elongation helicase 1 (RTEL1); experiment: as above; assay type: cell-based; details: 100 nM, 24 hrs
Protocol: as §3, §4

[6] = test system: RAB10; experiment: Phosphoproteomic analysis, immune stimulated human PBMCs; assay type: cell-based; details: 100 nM, 24 hrs
Protocol: as §3, §4

[7] = test system: RAB12; experiment: as above; assay type: cell-based; details: 100 nM, 24 hrs
Protocol: as §3, §4

[8] = test system: CHED; details: Lys2
[9] = test system: T3, PIP4K2B; experiment: KiNativ profiling in human PBMCs; assay type: binding; details: ATP
T3 construct: purchased ActivX Technologies (KiNativ)

[10] = test system: T4, PKCd; experiment: KiNativ profiling in human PBMCs; assay type: binding; details: Lys2
T4 construct: purchased ActivX Technologies (KiNativ)

[11] = test system: T5, PDHK1; experiment: KiNativ profiling in human PBMCs; assay type: binding; details: ATP
T5 construct: purchased ActivX Technologies (KiNativ)

[12] = test system: T6, MAP2K1; experiment: KiNativ profiling in human PBMCs; assay type: binding; details: Lys2
T6 construct: purchased ActivX Technologies (KiNativ)

[13] = test system: T7, GAK; experiment: KiNativ profiling in human PBMCs; assay type: binding; details: Lys2
T7 construct: purchased ActivX Technologies (KiNativ)

[14] = test system: T8, SRC; experiment: KiNativ profiling in human PBMCs; assay type: binding; details: Lys1
T8 construct: purchased ActivX Technologies (KiNativ)

[15] = test system: T9, PKCh; experiment: KiNativ profiling in human PBMCs; assay type: binding; details: Lys1
T9 construct: purchased ActivX Technologies (KiNativ)

[16] = test system: T10, SRPK1; experiment: KiNativ profiling in human PBMCs; assay type: binding; details: Lys2
T10 construct: purchased ActivX Technologies (KiNativ)

[17] = test system: T11, MAP2K2; experiment: KiNativ profiling in human PBMCs; assay type: binding; details: Lys2
T11 construct: purchased ActivX Technologies (KiNativ)

[18] = test system: T12, MPSK1; experiment: KiNativ profiling in human PBMCs; assay type: binding; details: Lys1
T12 construct: purchased ActivX Technologies (KiNativ)

Cc1cccc(-c2cc(Nc3ccn(C)n3)nc3[nH]cc(C#N)c23)c1 [Lu AF58786] was tested, and the IC50 [1] was 12 nM, the IC50 [2] was 93 nM and the IC50 [3] was 19 nM. For the same compound, the “LRRK2 down-regulated on the protein level” value [4] was “approximately 1.7 fold”, the “RTEL1 expression level downregulated” value [5] was 2 fold and the “reduced level of phosphorylation, Thr73 on Rab10” value [6] was “approximately 2 fold”. The “reduced level of phosphorylation, Ser106 on Rab12” value [7] was “approximately 2 fold”.
For Cn1cc(-c2c[nH]c3ncnc(N4CCOCC4)c23)cc1C#N [PFE-360], the “% Inhibition” value ([8]; 0.1µM) was 4.9%, the “% Inhibition” value ([8]; 1µM) was -1.5% and the “% Inhibition” value ([9]; 0.1µM) was 6.9%. For the same compound, the “% Inhibition” value ([9]; 1µM) was 22.6%, the “% Inhibition” value ([10]; 0.1µM) was 3.5% and the “% Inhibition” value ([10]; 1µM) was -0.6%. The “% Inhibition” value ([11]; 0.1µM) was -3.7%, the “% Inhibition” value ([11]; 1µM) was -3% and the “% Inhibition” value ([12]; 0.1µM) was -25.9%. The “% Inhibition” value ([12]; 1µM) was 6.5%, the “% Inhibition” value ([13]; 0.1µM) was -12.4% and the “% Inhibition” value ([13]; 1µM) was -36.6%. For the same compound, the “% Inhibition” value ([14]; 0.1µM) was -31.8%, the “% Inhibition” value ([14]; 1µM) was -0.3% and the “% Inhibition” value ([15]; 0.1µM) was -10.3%. The “% Inhibition” value ([15]; 1µM) was -11%, the “% Inhibition” value ([16]; 0.1µM) was 12.7% and the “% Inhibition” value ([16]; 1µM) was -13.2%. For the same compound, the “% Inhibition” value ([17]; 0.1µM) was -11.4%, the “% Inhibition” value ([17]; 1µM) was 20.4% and the “% Inhibition” value ([18]; 0.1µM) was 5.5%. For the same compound, the “% Inhibition” value ([18]; 1µM) was -27.6%.
